Laboratory results taken from US20190282701A1, “CONJUGATES OF HYALURONIC ACID AND ANTICANCER COMPOUNDS” (THE UNIVERSITY OF MANCHESTER, priority 2016, published 2019).

How the values were obtained:
[1] = literature; cited from earlier work
[2] = system: MDA-MB-231 breast cancer cells; test: MTT toxicity of curcumin and curcumin-HAB conjugate; assay type: cell-based
Description: MDA-MB-231 breast cancer cells were cultured in RPMI-1640 (Gibco) containing 10% FBS, 1% Pen-Strep, L-Glutamine 2 mM (medium) at 37° C. in a humidified 5% CO2 atmosphere. To determine the toxicity of curcumin and a curcumin-HAB conjugate, cells were seeded in 96-well plates at a density of 1,000 cells per well in medium and left to attach for 24 hours. Medium was then removed and replaced with medium containing various concentrations of curcumin or the curcumin-HA conjugate. […] After this time, drug containing medium was removed, replaced with fresh medium and cells incubated for a further 96 hours. […] Briefly, 50 μl of MTT solution (0.5 mg/ml in cell culture medium) was added to each well. After incubation for a further 4 h at 37° C. the medium was removed from each well and replaced with 200 μl of DMSO to dissolve the formazan crystals. The Absorbance in each well was then read at a wavelength of 450 nm using a Tecan Infinite M200 plate-reader using I-control software. The relative cell viability (%) was calculated by the formula [A]test/[A]control×100, where “[A]test” is the absorbance of the test sample, and “[A]control” is the absorbance of the control cells incubated solely with culture medium.

LNCaP tumor = test: tumor growth in LNCaP tumor-bearing athymic nude mice; assay type: in vivo; conditions: i.v. every 3 day, 21 days
Description: Tumor-bearing mice were prepared by injecting a suspension of LNCaP cells 1×10^6 in saline physiological solution (100 μL) into the subcutaneous dorsa of athymic nude mice (seven weeks old, 20-25 g). After fourteen days of appropriate tumor growth, LNCaP bearing mice were divided into eight groups (n=10 for each group). Treatment was initiated when the tumor volume reached 90 mm^3. The mice were then i.v. injected with 200 μL of the following solutions: […] DMSO to obtain doses of 3, 6, 25 mg/Kg, HAB to obtain a dose of 50 mg/Kg, and DMSO 11% wt. in PBS. Intravenous injections, administered in tail vein, were performed every 3 day for a total period of 21 days of treatment and then sacrificed according to ethical laws in force, following a literature method^1. The tumor size was determined by caliper measurement of the largest and perpendicular diameters during the time of treatment. Tumor volumes were calculated according to the formula: V=a×b^2×0.52, where a is the largest superficial diameter and b is the smallest superficial diameter, according to a literature procedure^17.

[3] = system: NCI-H209 lung cancer cells; conditions: 24 h; cited from earlier work
MCF7 breast cancer cells = conditions: 72 h; cited from earlier work
16-F10 melanoma cells = conditions: 72 h; cited from earlier work
[4] = system: HK1 squamous nasopharynx carcinoma cells; conditions: 72 h; cited from earlier work
[5] = system: C66-1 squamous nasopharynx carcinoma cells; conditions: 72 h; cited from earlier work
A549 = test: hypoxic/normoxic cytotoxicity, A549; assay type: cell-based; conditions: Homo sapiens, survival at 72 h, n=3, conjugate as TPZ groups
Calu-3 = test: hypoxic/normoxic cytotoxicity, Calu-3; assay type: cell-based; conditions: Homo sapiens, survival at 72 h, n=3, conjugate as TPZ groups
Calu-6 = test: hypoxic/normoxic cytotoxicity, Calu-6; assay type: cell-based; conditions: Homo sapiens, survival at 72 h, n=3, conjugate as TPZ groups
HepG2 = test: hypoxic/normoxic cytotoxicity, HepG2; assay type: cell-based; conditions: Homo sapiens, survival at 72 h, n=3, conjugate as TPZ groups
Hep3B2 = test: hypoxic/normoxic cytotoxicity, Hep3B2; assay type: cell-based; conditions: Homo sapiens, Hep3B, survival at 72 h, n=3, conjugate as TPZ groups
SNU-423 = test: hypoxic/normoxic cytotoxicity, SNU-423; assay type: cell-based; conditions: Homo sapiens, survival at 72 h, n=3, conjugate as TPZ groups
SKBr3 = test: hypoxic/normoxic cytotoxicity, SKBr3; assay type: cell-based; conditions: Homo sapiens, survival at 72 h, n=3, conjugate as TPZ groups
MDA-MB-468 = test: hypoxic/normoxic cytotoxicity, MDA-MB-468; assay type: cell-based; conditions: Homo sapiens, survival at 72 h, n=3, conjugate as TPZ groups
T47D = test: hypoxic/normoxic cytotoxicity, T47D; assay type: cell-based; conditions: Homo sapiens, survival at 72 h, n=3, conjugate as TPZ groups
MCF-7 = test: hypoxic/normoxic cytotoxicity, MCF-7; assay type: cell-based; conditions: Homo sapiens, survival at 72 h, n=3, conjugate as TPZ groups
MDA-MB-231 = test: hypoxic/normoxic cytotoxicity, MDA-MB-231; assay type: cell-based; conditions: Homo sapiens, survival at 72 h, n=3, conjugate as TPZ groups
FaDu = test: hypoxic/normoxic cytotoxicity, FaDu; assay type: cell-based; conditions: Homo sapiens, survival at 72 h, n=3, conjugate as TPZ groups
MIA PACA-2 = test: hypoxic/normoxic cytotoxicity, MIA PACA-2; assay type: cell-based; conditions: Homo sapiens, survival at 72 h, n=3, conjugate as TPZ groups
CAL-27 = test: hypoxic/normoxic cytotoxicity, CAL-27; assay type: cell-based; conditions: Homo sapiens, survival at 72 h, n=3, conjugate as TPZ groups
human tumoral cell lines [6] = test: tumour cell viability assays on a panel of human cancer cell lines (overall statements, FIG. 8-10); conditions: eight cancer cell lines, 3 h exposure, FIG. 9 and 10
human tumoral cell lines [7] = system: human tumoral cell lines
[8] = A549, A549, 0.1% O2, 3 h exposure
[9] = Calu-3, Calu-3, 0.1% O2, 3 h exposure
[10] = Calu-3, Calu-3, Air, 3 h exposure
[11] = Calu-6, Calu-6, 0.1% O2, 3 h exposure
[12] = Calu-6, Calu-6, Air, 3 h exposure
[13] = HepG2, HepG2, 0.1% O2, 3 h exposure
[14] = HepG2, HepG2, Air, 3 h exposure
[15] = SNU-423, SNU-423, 0.1% O2, 3 h exposure
[16] = SNU-423, SNU-423, Air, 3 h exposure
[17] = SK-BR-3, SKBr3, 0.1% O2, 3 h exposure
[18] = SK-BR-3, SKBr3, Air, 3 h exposure
[19] = MDA-MB-468, MDA-MB-468, 0.1% O2, 3 h exposure
[20] = MDA-MB-468, MDA-MB-468, Air, 3 h exposure
[21] = MCF7, MCF-7, 0.1% O2, 3 h exposure
[22] = MDA-MB-231, MDA-MB-231, 0.1% O2, 3 h exposure
[23] = MDA-MB-231, MDA-MB-231, Air, 3 h exposure
[24] = MIA PaCa-2, MIA PACA-2, 0.1% O2, 3 h exposure
[25] = MIA PaCa-2, MIA PACA-2, Air, 3 h exposure
[26] = CAL-27, CAL-27, 0.1% O2, 3 h exposure
[27] = CAL-27, CAL-27, Air, 3 h exposure

Row | Structure (SMILES) | tissue accumulation of free drug [1] | IC50 (A549; [8]) [µM] | IC50 (A549; A549, A549, Air, 3 h exposure) [µM] | IC50 (Calu-3; [9]) [µM] | IC50 (Calu-3; [10]) [µM] | IC50 (Calu-6; [11]) [µM] | IC50 (Calu-6; [12]) [µM] | IC50 (HepG2; [13]) [µM] | IC50 (HepG2; [14]) [µM] | IC50 (Hep3B2; Hep3B2, 0.1% O2, 3 h exposure) [µM] | IC50 (Hep3B2; Hep3B2, Air, 3 h exposure) [µM] | IC50 (SNU-423; [15]) [µM] | IC50 (SNU-423; [16]) [µM] | IC50 (SKBr3; [17]) [µM] | IC50 (SKBr3; [18]) [µM] | IC50 (MDA-MB-468; [19]) [µM] | IC50 (MDA-MB-468; [20]) [µM] | IC50 (T47D; 0.1% O2, 3 h exposure) [µM] | IC50 (T47D; Air, 3 h exposure) [µM] | IC50 (MCF-7; [21]) [µM] | other results
1 | Oc1cc(O)cc(/C=C/c2ccc(O)c(O)c2)c1 [piceatannol] | strong renal and pulmonary accumulation |  |  |  |  |  |  |  |  |  |  |  |  |  |  |  |  |  |  |  | 
2 | COc1cc(/C=C/C(=O)CC(=O)/C=C/c2ccc(O)c(OC)c2)ccc1O [curcumin] |  |  |  |  |  |  |  |  |  |  |  |  |  |  |  |  |  |  |  |  | maximum cell kill that could be achieved ([2]; MDA-MB-231, 40 μM curcumin, 3 h exposure then 96 h): 40%; concentration of curcumin needed for 40% cell kill ([2]; MDA-MB-231, 3 h exposure then 96 h, conjugate as curcumin contained): 40 µM
3 | O=c1c(O)c(-c2ccc(O)c(O)c2)oc2cc(O)cc(O)c12 [quercetin] | strong renal and pulmonary accumulation |  |  |  |  |  |  |  |  |  |  |  |  |  |  |  |  |  |  |  | dose of free quercetin giving results comparable to HABQ (LNCaP tumor): 25 mg/kg; IC50 [3]: 5 µM; IC50 (MCF7 breast cancer cells): 10 µM; IC50 (16-F10 melanoma cells): 20 µM; IC50 [4]: 150 to 200 µM; IC50 [5]: 150 to 200 µM
4 | O=C(NCCc1ccc(O)c(O)c1)Nc1n[n+]([O-])c2ccccc2[n+]1[O-] [TPZ-DOPA] |  | 42.3 ± 1.2 | 83.6 ± 3.7 | 16.7 ± 0.9 | 20.6 ± 1.1 | 8.3 ± 0.9 | 26.7 ± 4.8 | 3.7 ± 0.7 | 13.8 ± 2.8 | 4.8 ± 0.8 | 21.8 ± 2.7 | 6 ± 1 | 22.5 ± 6.4 | 13 ± 1.3 | 17.7 ± 1.5 | 8.2 ± 2.6 | 17.5 ± 5 | 18 ± 3.7 | 35.5 ± 6.4 | 15.4 ± 7.09 | IC50 (MCF-7; MCF7, MCF-7, Air, 3 h exposure): 23.1 ± 5.5 µM; IC50 (MDA-MB-231; [22]): 9 ± 1.4 µM; IC50 (MDA-MB-231; [23]): 23.1 ± 5.3 µM; IC50 (FaDu; 0.1% O2, 3 h exposure): 6.5 ± 0.9 µM; IC50 (FaDu; Air, 3 h exposure): 18 ± 2 µM; IC50 (MIA PACA-2; [24]): 9.6 ± 3.4 µM; IC50 (MIA PACA-2; [25]): 28 ± 3.7 µM; IC50 (CAL-27; [26]): 7.5 ± 4.4 µM; IC50 (CAL-27; [27]): 18.7 ± 3.1 µM; 72 h viability under hypoxia (0.1% oxygen) vs normoxia (air) (human tumoral cell lines [6]): viability is lower under hypoxia than that under normoxia
5 | Nc1n[n+]([O-])c2ccccc2[n+]1[O-] [TPZ, tirapazamine] |  | 81.3 ± 7.2 | 585 ± 26.3 | 71.7 ± 4.4 | 242 ± 6 | 75 ± 8.6 | 340 ± 11.5 | 13 ± 4.7 | 228 ± 40.1 | 31.2 ± 2.3 | > 500 | 40 ± 5.8 | > 500 | 6.3 ± 1.3 | 218 ± 3.5 | 7.5 ± 4.1 | 232 ± 35 | 17.1 ± 1 | 271 ± 36.4 | 20 ± 2 | IC50 (MCF-7; MCF7, MCF-7, Air, 3 h exposure): 310 ± 18.3 µM; IC50 (MDA-MB-231; [22]): 30 ± 5 µM; IC50 (MDA-MB-231; [23]): 341 ± 37.5 µM; IC50 (FaDu; 0.1% O2, 3 h exposure): 23.3 ± 5.4 µM; IC50 (FaDu; Air, 3 h exposure): 383 ± 104 µM; IC50 (MIA PACA-2; [24]): 15.3 ± 2.5 µM; IC50 (MIA PACA-2; [25]): 270 ± 10 µM; IC50 (CAL-27; [26]): 10 ± 2 µM; IC50 (CAL-27; [27]): 318 ± 50.2 µM; difference between hypoxic and normoxic cytotoxicity (human tumoral cell lines [7]): larger difference between hypoxic and normoxic cytotoxicity
